According to patent publication EP0876160B1, “LIGAND DIRECTED ENZYME PRODRUG THERAPY” (priority 1996, dated 1997):

Tests used:
NIH3T3 cells = assay: Non-specific cytotoxicity assay, cell growth by [3H]-thymidine incorporation; format: cell-based
Procedure: (§1) Confluent NIH3T3 cells were cultured in the absence (control, lane 1) or presence of 1mM CMDA prodrug (+CMDA, lane 2) for 18 hours. After incubation, the cells were diluted into fresh dishes (at a dilution of 100 fold) and allowed to grow for a further 6 days after which time the survival of the cells was determined by [^3H] thymidine incorporation. The results are expressed in terms of the % growth in terms of the control, which were considered to represent 100% cell growth.
Confluent NIH3T3 cells were cultured in the presence of 1mM CMDA prodrug in the absence of any additions (control, lane 3) or in the presence of the indicated fusion proteins (lanes 4-8). The additions were : lane 4, CPH6; lane 5, CPV161H6; lane 6, V161CPH6; lane 7, V115CPH6; lane 8, pEFCPV109H6. For each fusion, 0.3 to 0.9 nM of the fusions were added as determined by quantitative immunoprotein blotting. The cells were incubated and processed as in section A above for cell growth. […]
For the first assay, we wished to establish that CPH6 and the fusion proteins were able to direct prodrug dependent cyotoxicity of NIH3T3 cells, in a non-targeted manner. […] Samples of the purified proteins were added to NIH3T3 cells in the presence of the CMDA prodrug and the effects on cell viability were determined by measuring cell growth by [3H]-thymidine incorporation.

[1] = system: human umbilical vein endothelial (Hu-V-ec) cells; assay: VEGF-directed cytotoxicity assay, cell growth by [3H]-thymidine incorporation; format: cell-based
Procedure: as §1, with “Confluent Hu-V-ec” for “Confluent NIH3T3”, “prodrug (+ CMDA,” for “prodrug (+CMDA,”, “of 3” for “of 100”
Confluent Hu-V-ec cells were cultured in the absence of any additions (control, lane 3) or in the presence of CPH6 (27 nM, lane 4), or of V115CPH6 (11nM, lane 5) for 30 min. The cells were then washed 6 times with fresh medium and incubated overnight in the presence of 1mM CMDA. The cells were re-plated at a dilution of 1/3 and allowed to grow for a further 4 days after which time the cell growth was estimated by [3H]thymidine incorporation. The results are expressed in terms of the % growth in terms of the control lane, which were considered to represent 100% cell growth.
The fusion proteins were assesed for their ability to direct the CMDA-dependent killing of cells which express specific receptors for VEGF on their surface. For this analysis, we employed human umbilical vein endothelial (Hu-V-ec) cells, which are dependent for growth on VEGF (Prog Growth Factor Res, 5, 89, 1994). […] The cells were incubated in the presence of CPH6, or V115CPH6 for 30 min to allow the fusion proteins to bind to the cell surface and then the cells were washed to remove unbound protein. CMDA was added and cell survival was determined by [3H]-thymidine incorporation.

[2] = target: bacterially produced CPG2 (Carboxypeptidase G2, wild type) (Pseudomonas sp., UniProt P06621); conditions: substrate MTX; cited from earlier work
[3] = target: CPG2/VEGF fusion protein CPV109H6 (CPG2 amino acids 23-415 fused via peptide spacer to VEGF amino acids 1-109, polyhistidine tag), SEQ ID No. 18 (UniProt P06621+P15692, form not given/N222Q/N264Q/N272Q); conditions: substrate MTX; CPV109H6 expressed in Sf9 cells, Ni++-NTA purified; 25°C, pH 7.3
From the text: (§2) Using this protocol, CPH6, V161CPH6, V115CPH6 and CPV109H6 were all purified from Sf9 cells by Ni++-NTA-Agarose affinity chromatography as described above. These samples were used to determine the affinity of the CPG2 moiety for the substrate MTX.

[4] = target: VEGF/CPG2 fusion protein V161CPH6 (VEGF amino acids 1-161 fused to CPG2 amino acids 23-415, polyhistidine tag), SEQ ID No. 8 (UniProt P06621+P15692, form not given/N222Q/N264Q/N272Q); conditions: substrate MTX; V161CPH6 expressed in Sf9 cells, Ni++-NTA purified; 25°C, pH 7.3
From the text: as §2

[5] = target: VEGF/CPG2 fusion protein V115CPH6 (VEGF amino acids 1-115 fused to CPG2, polyhistidine tag), SEQ ID No. 10 (UniProt P06621+P15692, form not given/N222Q/N264Q/N272Q); conditions: substrate MTX; V115CPH6 expressed in Sf9 cells, Ni++-NTA purified; 25°C, pH 7.3
From the text: as §2

[6] = target: Carboxypeptidase G2 (CPG2) construct CPH6 (c-erbB2 signal peptide, CPG2 amino acids 23-415, three Asn -> Gln glycosylation-site mutations N222, 264 and 272 > Q, (Pseudomonas sp., UniProt P06621, N222Q/N264Q/N272Q)); conditions: substrate MTX; CPH6 expressed in Sf9 cells, Ni++-NTA purified; 25°C, pH 7.3
From the text: as §2

With CS(=O)(=O)OCCN(CCCl)c1ccc(C(=O)N[C@@H](CCC(=O)O)C(=O)O)cc1 [CMDA, N-4-[(2-chloroethyl)(2-mesyloxyethyl)amino]benzoyl-L-glutamic acid] the growth of cells (NIH3T3 cells; 1mM CMDA alone, 18 hours, then 6 days growth) was “does not significantly affect the growth”, the cell death (NIH3T3 cells; 1mM CMDA in the presence of sub-nanomolar (0.3 to 0.9 nM) CPH6 or each of the fusion proteins) was “complete cell death” and the “sensitivity (growth rate)” value ([1]; 1mM CMDA alone, 18 hours) was “not significantly sensitive”. For the same compound, the “growth rate of the cells” value ([1]; cells pre-incubated with CPH6 (27 nM) 30 min, washed, then 1mM CMDA overnight) was “no significant affect on the growth rate” and the “inhibition of cell growth” value ([1]; cells pre-incubated with V115CPH6 (11nM) 30 min, washed, then 1mM CMDA overnight) was greater than 90%.
In the case of CN(Cc1cnc2nc(N)nc(N)c2n1)c1ccc(C(=O)N[C@@H](CCC(=O)O)C(=O)O)cc1 [MTX, Methotrexate], the Km [2] is given as roughly 10 µM, the Km [3] is given as 9.1 ± 1.1 µM and the Km [4] is given as 18.2 ± 1.5 µM. It also gave a Km [5] of 17 ± 1 µM and a Km [6] of 19.6 ± 3.2 µM.
